Experimental findings from PubChem BioAssay AID1259407 (Chemical Carcinogenesis Research Information System (CCRIS), 2018) are described below.

This data set deals with CCRIS mutagenicity, Ames/micronucleus/aberration tests. The data set is described as follows: CCRIS mutagenicity studies.
Setting [1] is: Test System: AMES SALMONELLA TYPHIMURIUM, Strain/Indicator: TA98, Metabolic Activation: NONE, Method: STANDARD PLATE.
Where [2] appears, read: Test System: AMES SALMONELLA TYPHIMURIUM, Strain/Indicator: TA98, Metabolic Activation: RAT, LIVER, S-9, AROCLOR 1254, Method: STANDARD PLATE.
Where [3] appears, read: Test System: AMES SALMONELLA TYPHIMURIUM, Strain/Indicator: TA100, Metabolic Activation: NONE, Method: STANDARD PLATE.
Where [4] appears, read: Test System: AMES SALMONELLA TYPHIMURIUM, Strain/Indicator: TA100, Metabolic Activation: RAT, LIVER, S-9, AROCLOR 1254, Method: STANDARD PLATE.

Calls of active or inactive are those of the source. No rule for the calls is given here.

As to `C=CCOc1ccccc1OCC(O)CNC(C)C` (configuration not stated), the mutagenic call is “inactive; negative” (Test System: AMES SALMONELLA TYPHIMURIUM, Strain/Indicator: TA98, Metabolic Activation: NONE); “inactive; negative” under setting [1]; “inactive; negative” (Test System: AMES SALMONELLA TYPHIMURIUM, Strain/Indicator: TA98, Metabolic Activation: RAT, LIVER, S-9, AROCLOR 1254); “inactive; negative” under setting [2]; “inactive; negative” (Test System: AMES SALMONELLA TYPHIMURIUM, Strain/Indicator: TA100, Metabolic Activation: NONE); “inactive; negative” under setting [3]. Also, the mutagenic call is, setting by setting: (Test System: AMES SALMONELLA TYPHIMURIUM, Strain/Indicator: TA100, Metabolic Activation: RAT, LIVER, S-9, AROCLOR 1254) “inactive; negative”; under setting [4], “inactive; negative”; (Test System: AMES SALMONELLA TYPHIMURIUM, Strain/Indicator: TA1535, Metabolic Activation: NONE) “inactive; negative”; (Test System: AMES SALMONELLA TYPHIMURIUM, Strain/Indicator: TA1535, Metabolic Activation: RAT, LIVER, S-9, AROCLOR 1254) “inactive; negative”; (Test System: AMES SALMONELLA TYPHIMURIUM, Strain/Indicator: TA1537, Metabolic Activation: NONE) “inactive; negative”; (Test System: AMES SALMONELLA TYPHIMURIUM, Strain/Indicator: TA1537, Metabolic Activation: RAT, LIVER, S-9, AROCLOR 1254) “inactive; negative”. Also, the mutagenic call is “inactive; negative” (Test System: CHINESE HAMSTER V-79, Strain/Indicator: V-79/6-THIOGUANINE, Metabolic Activation: NONE, Method: REPLATING); “inactive; negative” (Test System: CHINESE HAMSTER V-79, Strain/Indicator: V-79/6-THIOGUANINE, Metabolic Activation: RAT, HEPATOCYTES, Method: REPLATING); “inactive; negative” (Test System: UDS HUMAN HEPATOCYTES, Strain/Indicator: THY INCORP, Metabolic Activation: NONE, Method: AUTORADIOGRAPHY); “inactive; negative” (Test System: UDS RAT HEPATOCYTES, Strain/Indicator: THY INCORP, Metabolic Activation: NONE, Method: AUTORADIOGRAPHY).
Regarding `O=S(=O)(O)c1ccc2cc(Oc3ccc4cc(S(=O)(=O)O)ccc4c3)ccc2c1`, the mutagenic call runs as follows: (Test System: AMES SALMONELLA TYPHIMURIUM, Strain/Indicator: TA98, Metabolic Activation: NONE, Method: PREINCUBATION) “inactive; negative”; (Test System: AMES SALMONELLA TYPHIMURIUM, Strain/Indicator: TA98, Metabolic Activation: RAT, LIVER, S-9, PHENOBARBITAL, Method: PREINCUBATION) “inactive; negative”; (Test System: AMES SALMONELLA TYPHIMURIUM, Strain/Indicator: TA100, Metabolic Activation: NONE, Method: PREINCUBATION) “inactive; negative”; (Test System: AMES SALMONELLA TYPHIMURIUM, Strain/Indicator: TA100, Metabolic Activation: RAT, LIVER, S-9, PHENOBARBITAL, Method: PREINCUBATION) “inactive; negative”.
Regarding `COc1cc(N)c([N+](=O)[O-])cc1N`, the mutagenic call is “active; positive” under setting [1]; “active; positive” under setting [2]; “inactive; negative” under setting [3]; “active; positive” under setting [4]; “inactive; negative” (Test System: AMES SALMONELLA TYPHIMURIUM, Strain/Indicator: TA1535, Metabolic Activation: NONE, Method: STANDARD PLATE); “inactive; negative” (Test System: AMES SALMONELLA TYPHIMURIUM, Strain/Indicator: TA1535, Metabolic Activation: RAT, LIVER, S-9, AROCLOR 1254, Method: STANDARD PLATE). Also, the mutagenic call (Test System: AMES SALMONELLA TYPHIMURIUM, Strain/Indicator: TA1537, Metabolic Activation: NONE, Method: STANDARD PLATE) was “active; positive”; the mutagenic call (Test System: AMES SALMONELLA TYPHIMURIUM, Strain/Indicator: TA1537, Metabolic Activation: RAT, LIVER, S-9, AROCLOR 1254, Method: STANDARD PLATE) is “active; positive”; the mutagenic call (Test System: AMES SALMONELLA TYPHIMURIUM, Strain/Indicator: TA1538, Metabolic Activation: NONE, Method: STANDARD PLATE) was “active; positive”; the mutagenic call (Test System: AMES SALMONELLA TYPHIMURIUM, Strain/Indicator: TA1538, Metabolic Activation: RAT, LIVER, S-9, AROCLOR 1254, Method: STANDARD PLATE) is “active; positive”.
For `Nc1ccc2c(O)cc(S(=O)(=O)O)cc2c1`, the mutagenic call is “inactive; negative” (End Point: IN VITRO CHROMOSOMAL ABERRATIONS, Test System: CHL CELLS, Metabolic Activation: NONE) and “active; positive” (End Point: IN VITRO CHROMOSOMAL ABERRATIONS, Test System: CHL CELLS, Metabolic Activation: RAT, LIVER, S-9, SODIUM PHENOBARBITAL AND 5,6-BENZOFLAVONE).
